Reference: ChEMBL document CHEMBL4024706 (Eur J Med Chem, 2017)

Experiments:
[1] = molecular target: Serine/threonine-protein kinase/endoribonuclease IRE1 (Homo sapiens) (UniProt O75460); test: Inhibition of wild-type human partial length ERN1 (S551 to E852 residues) expressed in mammalian expression system assessed as residual activity at 1 uM by Kinomescan method relative to control
[2] = molecular target: Calcium/calmodulin-dependent protein kinase type 1G (Homo sapiens) (UniProt Q96NX5); test: Inhibition of wild-type human partial length CAMK1G (M1 to A342 residues) expressed in bacterial expression system assessed as residual activity at 1 uM by Kinomescan method relative to control
[3] = molecular target: Insulin receptor (Homo sapiens) (UniProt P06213); test: Inhibition of wild-type human partial length INSR (P997 to E1318 residues) expressed in mammalian expression system assessed as residual activity at 1 uM by Kinomescan method relative to control
Sequence of Insulin receptor (Homo sapiens) (P06213 28-758 limits assumed): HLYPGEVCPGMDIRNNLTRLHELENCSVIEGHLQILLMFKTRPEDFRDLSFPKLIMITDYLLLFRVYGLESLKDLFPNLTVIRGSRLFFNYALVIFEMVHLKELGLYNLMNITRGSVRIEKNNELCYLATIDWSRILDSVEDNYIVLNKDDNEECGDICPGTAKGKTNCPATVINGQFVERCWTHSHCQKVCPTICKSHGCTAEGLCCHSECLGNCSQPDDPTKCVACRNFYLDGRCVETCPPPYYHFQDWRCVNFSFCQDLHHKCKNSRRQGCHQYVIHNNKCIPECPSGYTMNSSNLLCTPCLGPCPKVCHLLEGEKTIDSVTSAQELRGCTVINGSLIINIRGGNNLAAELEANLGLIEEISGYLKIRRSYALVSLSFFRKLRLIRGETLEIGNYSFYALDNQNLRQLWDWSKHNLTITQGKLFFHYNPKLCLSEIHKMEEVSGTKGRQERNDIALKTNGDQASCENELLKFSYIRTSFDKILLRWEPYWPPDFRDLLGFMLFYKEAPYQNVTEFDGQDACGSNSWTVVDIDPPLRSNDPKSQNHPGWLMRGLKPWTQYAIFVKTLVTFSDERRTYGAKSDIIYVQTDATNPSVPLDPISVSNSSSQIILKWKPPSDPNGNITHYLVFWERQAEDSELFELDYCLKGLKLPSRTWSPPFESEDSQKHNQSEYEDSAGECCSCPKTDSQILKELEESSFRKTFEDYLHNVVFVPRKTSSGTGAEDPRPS
Sequence of Insulin receptor (Homo sapiens) (P06213 763-1382 limits assumed): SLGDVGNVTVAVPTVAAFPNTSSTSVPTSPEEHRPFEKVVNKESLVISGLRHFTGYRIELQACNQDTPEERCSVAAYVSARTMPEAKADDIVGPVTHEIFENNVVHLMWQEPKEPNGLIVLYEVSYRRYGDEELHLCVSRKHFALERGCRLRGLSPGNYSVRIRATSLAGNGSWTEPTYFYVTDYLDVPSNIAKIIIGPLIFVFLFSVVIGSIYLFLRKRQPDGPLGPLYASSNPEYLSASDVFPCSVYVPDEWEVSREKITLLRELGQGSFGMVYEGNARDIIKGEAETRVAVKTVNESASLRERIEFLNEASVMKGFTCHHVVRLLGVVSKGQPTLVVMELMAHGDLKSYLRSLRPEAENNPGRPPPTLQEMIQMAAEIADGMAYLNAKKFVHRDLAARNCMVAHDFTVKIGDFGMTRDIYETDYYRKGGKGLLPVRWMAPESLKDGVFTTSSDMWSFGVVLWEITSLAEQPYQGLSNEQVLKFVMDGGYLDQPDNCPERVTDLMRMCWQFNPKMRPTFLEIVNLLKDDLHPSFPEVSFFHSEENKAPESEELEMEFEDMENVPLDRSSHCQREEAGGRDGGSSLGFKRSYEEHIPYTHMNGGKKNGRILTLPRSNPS

[4] = test system: Epidermal growth factor receptor (Homo sapiens), P00533 [L861Q]; test: Inhibition of human partial length EGFR L861Q mutant (R669 to V1011 residues) expressed in bacterial expression system assessed as residual activity at 1 uM by Kinomescan method relative to control
[5] = molecular target: Activin receptor type-2A (Homo sapiens) (UniProt P27037); test: Inhibition of wild-type human ACVR2A (V171 to T499 residues) expressed in bacterial expression system assessed as residual activity at 1 uM by Kinomescan method relative to control
[6] = molecular target: Homeodomain-interacting protein kinase 2 (Homo sapiens) (UniProt Q9H2X6); test: Inhibition of wild-type human partial length HIPK2 (M153 to S564 residues) expressed in mammalian expression system assessed as residual activity at 1 uM by Kinomescan method relative to control
[7] = molecular target: Insulin-like growth factor 1 receptor (Homo sapiens) (UniProt P08069); test: Inhibition of wild-type human partial length IGF1R (L972 to D1294 residues) expressed in bacterial expression system assessed as residual activity at 1 uM by Kinomescan method relative to control
[8] = molecular target: Mitogen-activated protein kinase 10 (Homo sapiens) (UniProt P53779); test: Inhibition of wild-type human partial length JNK3 (V28 to Q422 residues) expressed in mammalian expression system assessed as residual activity at 1 uM by Kinomescan method relative to control
[9] = test system: Tyrosine-protein kinase ABL1 (Homo sapiens), P00519 [H396P]; test: Inhibition of human phosphorylated ABL1 H396P mutant (S229 to K512 residues) expressed in mammalian expression system assessed as residual activity at 1 uM by Kinomescan method relative to control
[10] = molecular target: Mitogen-activated protein kinase kinase kinase 15 (Homo sapiens) (UniProt Q6ZN16); test: Inhibition of wild-type human partial length MAP3K15 (T625 to L932 residues) expressed in mammalian expression system assessed as residual activity at 1 uM by Kinomescan method relative to control
[11] = molecular target: Cyclin-dependent kinase 11B (Homo sapiens) (UniProt P21127); test: Inhibition of wild-type human partial length CDC2L1 (P353 to G692 residues) expressed in bacterial expression system assessed as residual activity at 1 uM by Kinomescan method relative to control
[12] = molecular target: Phosphatidylinositol 4-phosphate 5-kinase type-1 alpha (Homo sapiens) (UniProt Q99755); test: Inhibition of wild-type human full length PIP5K1A (M1 to H562 residues) expressed in bacterial expression system assessed as residual activity at 1 uM by Kinomescan method relative to control
Sequence of Phosphatidylinositol 4-phosphate 5-kinase type-1 alpha (Homo sapiens) (Q99755 whole entry, the tested form may be a part, canonical isoform): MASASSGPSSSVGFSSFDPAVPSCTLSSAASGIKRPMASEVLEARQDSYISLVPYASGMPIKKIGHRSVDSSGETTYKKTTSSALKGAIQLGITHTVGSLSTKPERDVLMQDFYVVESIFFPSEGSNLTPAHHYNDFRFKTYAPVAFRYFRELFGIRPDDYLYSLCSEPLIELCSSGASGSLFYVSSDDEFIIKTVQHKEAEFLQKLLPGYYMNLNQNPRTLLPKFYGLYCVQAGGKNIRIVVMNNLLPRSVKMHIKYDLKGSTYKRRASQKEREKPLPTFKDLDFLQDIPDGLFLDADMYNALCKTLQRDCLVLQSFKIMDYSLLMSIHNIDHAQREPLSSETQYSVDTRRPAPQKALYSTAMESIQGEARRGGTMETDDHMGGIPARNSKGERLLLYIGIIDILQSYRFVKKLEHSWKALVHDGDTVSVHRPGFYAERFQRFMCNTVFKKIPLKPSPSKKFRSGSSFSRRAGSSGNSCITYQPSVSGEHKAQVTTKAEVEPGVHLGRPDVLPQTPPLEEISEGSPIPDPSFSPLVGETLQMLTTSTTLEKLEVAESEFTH

[13] = test system: Phosphatidylinositol 4,5-bisphosphate 3-kinase catalytic subunit alpha isoform (Homo sapiens), P42336 [Q546K]; test: Inhibition of human partial length PIK3CA Q546K mutant (R108 to N1068 residues) expressed in mammalian expression system assessed as residual activity at 1 uM by Kinomescan method relative to control
Sequence of Phosphatidylinositol 4,5-bisphosphate 3-kinase catalytic subunit alpha isoform (Homo sapiens), P42336 [Q546K] (P42336 whole entry Q546K, the tested form may be a part, canonical isoform): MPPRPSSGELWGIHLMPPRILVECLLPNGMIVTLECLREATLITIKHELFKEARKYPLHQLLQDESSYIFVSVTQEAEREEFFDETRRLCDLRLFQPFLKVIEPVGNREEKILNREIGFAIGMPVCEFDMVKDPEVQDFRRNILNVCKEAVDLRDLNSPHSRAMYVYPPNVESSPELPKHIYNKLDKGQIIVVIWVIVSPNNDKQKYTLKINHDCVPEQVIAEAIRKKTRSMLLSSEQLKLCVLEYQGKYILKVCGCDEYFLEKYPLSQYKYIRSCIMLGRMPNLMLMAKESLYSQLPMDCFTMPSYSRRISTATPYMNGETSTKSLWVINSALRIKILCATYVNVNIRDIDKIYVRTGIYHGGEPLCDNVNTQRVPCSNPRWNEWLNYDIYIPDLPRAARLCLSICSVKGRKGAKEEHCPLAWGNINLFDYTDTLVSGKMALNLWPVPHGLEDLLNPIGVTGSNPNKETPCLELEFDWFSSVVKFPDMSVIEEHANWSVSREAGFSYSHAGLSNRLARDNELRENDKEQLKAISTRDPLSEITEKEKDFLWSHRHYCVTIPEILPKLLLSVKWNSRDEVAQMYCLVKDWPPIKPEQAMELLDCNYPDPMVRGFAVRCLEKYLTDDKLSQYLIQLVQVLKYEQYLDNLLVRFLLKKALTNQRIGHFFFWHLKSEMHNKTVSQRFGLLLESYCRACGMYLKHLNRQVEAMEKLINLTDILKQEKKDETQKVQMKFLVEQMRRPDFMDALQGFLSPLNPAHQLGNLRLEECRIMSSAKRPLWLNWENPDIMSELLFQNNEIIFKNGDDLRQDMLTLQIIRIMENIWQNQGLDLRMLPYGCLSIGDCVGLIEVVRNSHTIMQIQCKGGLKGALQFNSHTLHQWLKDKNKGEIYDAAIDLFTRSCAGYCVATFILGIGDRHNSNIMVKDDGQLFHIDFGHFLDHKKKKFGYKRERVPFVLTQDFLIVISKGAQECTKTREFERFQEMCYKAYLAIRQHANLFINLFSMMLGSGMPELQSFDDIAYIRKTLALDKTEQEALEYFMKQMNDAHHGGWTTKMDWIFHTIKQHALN

[14] = molecular target: Vascular endothelial growth factor receptor 2 (Homo sapiens) (UniProt P35968); test: Inhibition of wild-type human partial length VEGFR2 (R787 to P1253 residues) expressed in mammalian expression system assessed as residual activity at 1 uM by Kinomescan method relative to control
[15] = molecular target: Dual specificity protein kinase CLK2 (Homo sapiens) (UniProt P49760); test: Inhibition of wild-type human partial length CLK2 (D144 to R498 residues) expressed in bacterial expression system assessed as residual activity at 1 uM by Kinomescan method relative to control
Sequence of Dual specificity protein kinase CLK2 (Homo sapiens) (P49760 whole entry, looked up, the tested form may be a part): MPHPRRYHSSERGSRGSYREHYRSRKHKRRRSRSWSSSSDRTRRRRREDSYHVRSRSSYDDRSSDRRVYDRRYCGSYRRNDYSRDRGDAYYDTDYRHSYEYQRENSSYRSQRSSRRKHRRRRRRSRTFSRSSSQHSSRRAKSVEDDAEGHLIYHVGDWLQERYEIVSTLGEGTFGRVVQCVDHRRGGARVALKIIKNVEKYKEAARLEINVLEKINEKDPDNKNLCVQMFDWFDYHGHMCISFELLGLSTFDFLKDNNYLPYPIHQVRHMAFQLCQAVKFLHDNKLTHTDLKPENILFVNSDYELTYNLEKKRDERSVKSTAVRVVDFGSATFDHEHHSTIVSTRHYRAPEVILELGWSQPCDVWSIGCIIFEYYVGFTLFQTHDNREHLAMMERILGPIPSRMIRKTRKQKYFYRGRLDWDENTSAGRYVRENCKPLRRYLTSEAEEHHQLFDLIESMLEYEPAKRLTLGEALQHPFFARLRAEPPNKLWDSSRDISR

[16] = molecular target: Macrophage colony-stimulating factor 1 receptor (Homo sapiens) (UniProt P07333); test: Inhibition of wild-type human partial length autoinhibited CSF1R (Y538 to S939 residues) expressed in mammalian expression system assessed as residual activity at 1 uM by Kinomescan method relative to control
[17] = molecular target: Serine/threonine-protein kinase NLK (Homo sapiens) (UniProt Q9UBE8); test: Inhibition of wild-type human full length NLK (M13 to E527 residues) expressed in bacterial expression system assessed as residual activity at 1 uM by Kinomescan method relative to control
Sequence of Serine/threonine-protein kinase NLK (Homo sapiens) (Q9UBE8 whole entry, the tested form may be a part): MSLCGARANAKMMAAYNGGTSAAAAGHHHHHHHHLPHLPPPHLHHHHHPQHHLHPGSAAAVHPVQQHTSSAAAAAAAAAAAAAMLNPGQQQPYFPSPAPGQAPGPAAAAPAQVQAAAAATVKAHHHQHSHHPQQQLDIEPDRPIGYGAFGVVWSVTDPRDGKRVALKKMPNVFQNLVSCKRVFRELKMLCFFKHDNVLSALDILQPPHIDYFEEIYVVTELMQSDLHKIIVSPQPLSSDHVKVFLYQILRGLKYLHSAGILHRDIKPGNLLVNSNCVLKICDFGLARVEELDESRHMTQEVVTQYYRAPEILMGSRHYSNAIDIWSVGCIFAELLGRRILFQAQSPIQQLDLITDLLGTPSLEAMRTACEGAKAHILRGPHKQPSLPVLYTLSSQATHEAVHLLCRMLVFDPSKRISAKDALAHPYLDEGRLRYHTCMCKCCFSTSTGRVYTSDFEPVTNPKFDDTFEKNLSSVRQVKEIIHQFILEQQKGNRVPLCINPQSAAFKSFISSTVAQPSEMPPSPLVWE

[18] = molecular target: Serine/threonine-protein kinase 26 (Homo sapiens) (UniProt Q9P289); test: Inhibition of wild-type human full length MST4 (M1 to P416 residues) expressed in mammalian expression system assessed as residual activity at 1 uM by Kinomescan method relative to control
[19] = test system: Hepatocyte growth factor receptor (Homo sapiens), P08581 [Y1235D]; test: Inhibition of human partial length MET Y1235D mutant (D1010 to S1367 residues) expressed in bacterial expression system assessed as residual activity at 1 uM by Kinomescan method relative to control
[20] = molecular target: Serine/threonine-protein kinase BRSK2 (Homo sapiens) (UniProt Q8IWQ3); test: Inhibition of wild-type human full length BRSK2 (M1 to L674 residues) expressed in bacterial expression system assessed as residual activity at 1 uM by Kinomescan method relative to control
[21] = Tmax in Sprague-Dawley rat at 1 mg/kg, iv by LC-MS/MS method; format: ADME, organism-based; conditions: in vivo
[22] = molecular target: Mitogen-activated protein kinase kinase kinase 11 (Homo sapiens) (UniProt Q16584); test: Inhibition of wild-type human partial length MLK3 (I77 to W399 residues) expressed in bacterial expression system assessed as residual activity at 1 uM by Kinomescan method relative to control
[23] = molecular target: AP2-associated protein kinase 1 (Homo sapiens) (UniProt Q2M2I8); test: Inhibition of human wild-type AAK1 (G25 to L333 residues) expressed in bacterial expression system assessed as residual activity at 1 uM by Kinomescan method relative to control
[24] = molecular target: Glycogen synthase kinase-3 alpha (Homo sapiens) (UniProt P49840); test: Inhibition of wild-type human full length GSK3A (M1 to S483 residues) expressed in bacterial expression system assessed as residual activity at 1 uM by Kinomescan method relative to control
[25] = molecular target: Testis-specific serine/threonine-protein kinase 1 (Homo sapiens) (UniProt Q9BXA7); test: Inhibition of wild-type human full length TSSK1B (M1 to Q367 residues) expressed in bacterial expression system assessed as residual activity at 1 uM by Kinomescan method relative to control

Sequence of Serine/threonine-protein kinase/endoribonuclease IRE1 (Homo sapiens) (O75460 19-977 limits assumed): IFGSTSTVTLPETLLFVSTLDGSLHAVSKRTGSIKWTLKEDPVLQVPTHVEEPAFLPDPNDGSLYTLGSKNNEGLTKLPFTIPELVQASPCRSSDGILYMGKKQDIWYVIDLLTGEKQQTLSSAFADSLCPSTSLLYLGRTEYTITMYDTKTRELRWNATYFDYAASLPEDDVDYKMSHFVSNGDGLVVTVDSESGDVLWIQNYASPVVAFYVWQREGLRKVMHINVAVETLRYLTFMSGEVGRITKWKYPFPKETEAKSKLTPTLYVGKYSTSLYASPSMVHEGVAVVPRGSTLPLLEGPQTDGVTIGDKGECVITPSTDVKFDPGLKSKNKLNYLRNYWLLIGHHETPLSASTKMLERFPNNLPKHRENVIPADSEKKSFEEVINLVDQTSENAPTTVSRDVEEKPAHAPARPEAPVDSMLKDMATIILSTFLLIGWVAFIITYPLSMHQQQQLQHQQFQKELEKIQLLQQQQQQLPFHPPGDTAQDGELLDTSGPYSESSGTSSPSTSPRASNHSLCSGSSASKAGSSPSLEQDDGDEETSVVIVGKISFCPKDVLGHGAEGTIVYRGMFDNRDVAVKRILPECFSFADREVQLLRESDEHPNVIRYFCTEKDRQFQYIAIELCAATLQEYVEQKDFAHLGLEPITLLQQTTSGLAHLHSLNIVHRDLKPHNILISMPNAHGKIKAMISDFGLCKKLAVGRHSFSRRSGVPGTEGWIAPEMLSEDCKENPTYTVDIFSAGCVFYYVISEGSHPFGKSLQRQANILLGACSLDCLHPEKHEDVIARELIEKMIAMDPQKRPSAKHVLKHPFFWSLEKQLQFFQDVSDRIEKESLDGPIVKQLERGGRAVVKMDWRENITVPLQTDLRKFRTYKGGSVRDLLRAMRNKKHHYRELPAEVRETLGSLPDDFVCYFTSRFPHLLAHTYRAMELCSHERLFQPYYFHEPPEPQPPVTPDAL

C=CC(=O)Nc1cc(Nc2cc(-c3cccc(NC(=O)c4ccc(C(C)(C)C)cc4)c3C)cn(C)c2=O)ccc1C(=O)N1CCOCC1
Activity [1]: 100%
Activity [2]: 100%
Activity [3]: 100%
Activity [4]: 100%
Activity [5]: 90%
Activity [6]: 100%
Activity [7]: 92%
Activity [8]: 91%
Activity [9]: 100%
Activity [10]: 99%
Activity [11]: 96%
Activity [12]: 95%
Activity [13]: 87%
Activity [14]: 97%
Activity [15]: 100%
Activity [16]: 100%
Activity [17]: 63%
Activity [18]: 88%
Activity [19]: 89%
Activity [20]: 92%
Tmax [21]: 1.02 min
Activity [22]: 100%
Activity [23]: 96%
Activity [24]: 100%
Activity [25]: 98%
